Structures are written as SMILES.

The data set can be described thus: Human HepG2 cell viability assay in 384 well format. The arrangement: dose 125 nL, time 70.5 hour; concentration not given beside the values. The conditions noted are these: HepG2 cells, read-out: Inhibition. The data set is classed as toxicity, cell-based.
For the compound `COc1ccnc(CN(C)C(=O)CSc2nnc(N)s2)c1`, the cytotoxicity at 70.5 h is -5.2%.
The same measure for `Cc1nc(N)sc1C(=O)N1CCCC(COc2ccc(F)cc2)C1` (stereo not drawn): -0.394%; for `CCNC(=O)[C@@H]1C[C@@H](NC(=O)c2ccc(C#N)cc2)CN1CCCSC`: 17.5%.
As to `CC1(C)CC(C(=O)N2CCC3(CCC(=O)N(C4CC4)C3)CC2)CCO1` (stereo not drawn), the cytotoxicity at 70.5 h is -4.55%.
The same measure for `O=C(NCCc1csc(-c2cnccn2)n1)c1cnn[nH]1`: 21.3%.
On to `O=C(CCN1CCOC(C(F)(F)F)C1)NCc1cccc(Cl)c1` (stereo not drawn), for which the cytotoxicity at 70.5 h was -5.6%.
The same measure for `O=C(O)[C@@H]1CN(C(=O)CSCC2CC2)C[C@H]1c1ccccn1`: -1.99%; for `CCCc1ccc(CN2CCC3(CCC(=O)N(CCO)C3)CC2)o1`: -3.93%.
The same measure for `FC(F)(F)c1cccc(OC2CCN(Cc3ncc[nH]3)CC2)c1`: -0.255%; for `O=C1NCCCC12CCN(Cc1ccc(SC3CCCCC3)o1)C2` (stereo not drawn): 5.14%; for `CC(NC(=O)Cc1cc2c(cc1Cl)OCCO2)c1ccncn1` (stereo not drawn): -2.12%.
Consider `CCc1nccn1CC(=O)N1C[C@H]2CC[C@@H]1CN(C(=O)N(C)C)C2`, for which the cytotoxicity at 70.5 h is -3.56%.
For `Cn1cc(Cl)c(CN2CCn3nc(C(=O)N4CCCC4)cc3C2)n1`, the cytotoxicity at 70.5 h is -4.39%.
The same measure for `O=C(C1CNCCO1)N1CCCC(c2ccccc2)(c2ccccc2)C1` (stereo not drawn): -0.462%.
Then `N#Cc1cccnc1N1CCCC(CO)(Cc2ccccc2F)C1` (stereo not drawn), with -4.89%; and `CCCC(C)C(=O)N1CCC(c2cc(N3CCOCC3)nc(C)n2)CC1` (stereo not drawn), with -1.55%.
The same measure for `COc1cccc(-c2cc(NCCO)nc3[nH]ccc23)n1`: -10.9%.
For the compound `CCS(=O)(=O)CCNC1CCN(c2nc3ccc(Cl)cc3s2)CC1`, the cytotoxicity at 70.5 h turned out to be 4.49%.
Then `CC(O)C(=O)N1CCC(c2nccn2Cc2cscn2)CC1` (stereo not drawn), with 23.7%; and `CN1CCC2(CC1)CCN(C(=O)c1onc3ccccc13)C2`, with -6.04%; and `CC(CN1CCCCCC1)NCc1nncn1C1CCCCC1` (stereo not drawn), with -6.55%.
Then `COCCCC1CCCCN1C(=O)c1ccc(SCCO)cc1` (stereo not drawn), with 6.41%; and `Cc1nnsc1CN(C)C(=O)c1ccc(CSc2nnc[nH]2)o1`, with -10.2%; and `COc1cccc(C(=O)N2C[C@@H](C(=O)O)[C@H](c3ccccc3C)C2)c1`, with 6.74%.
As for `Cc1cc(N2CCCC(c3[nH]ncc3Cc3ccccc3)C2)nc(N)n1` (stereo not drawn), the cytotoxicity at 70.5 h was 11.1%.
Then `OC1CCCOC12CCN(c1ncccn1)CC2` (stereo not drawn), with 15.7%; and `Cc1nc(N2CCC3(CCCN(CCO)C3=O)C2)c2sccc2n1` (stereo not drawn), with -7.31%.
As to `COCc1nc(C2CC2)nn1-c1ccccc1Cl`, the cytotoxicity at 70.5 h was -2.98%.
Then `COc1ccccc1C1CNC(=O)c2nc(-c3cn(C)nc3C)[nH]c2C1` (stereo not drawn), with 8.73%; and `CN(C)CC1(O)CCCN(C(=O)c2ccccc2-n2cncn2)C1` (stereo not drawn), with -3.77%; and `CC(=O)NCCNC(=O)C1(N2CCCCC2)Cc2ccccc2C1`, with -7.44%.
The same measure for `Cc1ccc(C(=O)O)cc1-c1cccc2c1CCNC2`: -21%; for `Cc1ccc2[nH]c(=O)cc(C(=O)N[C@@H]3C[C@@H](CO)N(C)C3)c2c1`: -14.7%.
Take `COCc1nc(C2CC2)nn1-c1cccc(F)c1`: the cytotoxicity at 70.5 h was -7.42%.
For `CC(C)c1cc(C2CCN(C(=O)Cn3cnc4ccccc43)CC2)[nH]n1`, the cytotoxicity at 70.5 h was 4.36%.
For `COCc1cc(N2CCOC(c3ccc(Cl)c(Cl)c3)C2)ncn1` (stereo not drawn), the cytotoxicity at 70.5 h was -12.1%.
The same measure for `CCc1ccc(C2CC(=O)Nc3cc(OC)c(NS(C)(=O)=O)cc32)o1` (stereo not drawn): -3.63%; for `COc1ccc(CN(Cc2cnn(C)c2)CC(C)C)cn1`: -6.19%.
For the compound `O=C(c1cc2ccccc2[nH]c1=O)N1CCC2(CCCNC2)C1` (stereo not drawn), the cytotoxicity at 70.5 h is -4.47%.
Take `Cc1cccc(-n2nc(CC(C)C)nc2CS(C)(=O)=O)c1`: the cytotoxicity at 70.5 h is -2.84%.
Take `CCC(C)N(Cc1c[nH]c(C)n1)Cc1ccccc1Cl` (stereo not drawn): the cytotoxicity at 70.5 h was -8.23%.
The same measure for `CSCCC(=O)N1C[C@@H](C)[C@](O)(C(C)C)C1`: -9.47%.
`CCC[C@H]1CN(C2CCOCC2)C[C@@H]1NC(=O)CCn1ccnc1C`: the cytotoxicity at 70.5 h was determined as 3.94%.
Then `Cc1cnc(CNC(=O)CCCn2cnc3ccccc3c2=O)cn1`, with 6.51%; and `CCN(C)S(=O)(=O)NC(C)c1cnc(N(C)C2CCCCC2)nc1C` (stereo not drawn), with -4.92%.
The same measure for `Cc1ncc(C(=O)N2CCC(N3CCc4ccccc4C3)CC2)c(O)n1`: 2.23%.
Then `Cn1nc(CO)c2c1CCN(c1ncnc3c1CCNCC3)C2`, with -6.13%; and `O=C1[C@@H]2CN(c3ncccc3Cl)C[C@]2(C(=O)O)CN1CC1CC1`, with -7.05%; and `Cn1cc(CN2CCC(CCC(=O)Nc3ccccc3Cl)CC2)cn1`, with 4.76%.
For the compound `O=C(Cc1ccc(F)cc1Cl)N1CC[C@H](CO)[C@@H](O)C1`, the cytotoxicity at 70.5 h turned out to be 9.17%.
Then `COC[C@@]12CC[C@@H](N3CCOCC3)C[C@H]1CCN(c1ncccc1C)C2`, with -0.155%.
Then `CCNc1ccnc(NC2CCN(C(=O)c3ccc(C)cc3)CC2)n1`, with -13.3%.
Then `Cc1cc(C)cc(N2CCN(Cc3cccnc3)CC2=O)c1`, with -7.86%.
Regarding `Cc1ccsc1-c1cc(C(=O)O)cc(S(=O)(=O)NCc2ccccn2)c1`, the cytotoxicity at 70.5 h is -9.5%.
The same measure for `CSc1cccc(CN(C)C(=O)Nc2nc(C)n(C)n2)c1`: -3.93%.
The same measure for `CCn1cc(CNC2CCN(c3cccc(C)c3C)CC2)cn1`: -6.01%; for `CNc1nc(C)c(C(=O)N2C[C@H]3CC[C@@H]2CN(c2cnccn2)C3)s1`: -6.37%; for `CCc1c(C)nc(C)nc1N1C[C@@H](CN(CC)CCO)[C@@H](CO)C1`: 10.3%.
Then `Cc1nc(-c2cccc(N3CCC(NC4CCOCC4)CC3)c2)cs1`, with -3.92%; and `c1ccc(Cn2cc(CNc3ncnc4c3CCNCC4)cn2)cc1`, with -15%; and `CCCC1(NC(=O)C(c2ccc(F)cc2)N(C)C)CC1` (stereo not drawn), with 10.6%.
Regarding `Cc1c(NCc2cccnc2)cccc1C(=O)N1CCC(N(C)C)C1` (stereo not drawn), the cytotoxicity at 70.5 h is -5.39%.
The same measure for `Cc1cc(C(F)(F)F)cc(N2C[C@@H](CN3CCOCC3)[C@@H](CO)C2)n1`: -16.2%.
Turning to `COc1ccccc1CC(=O)N1CCC(OCc2cccnc2)CC1`, the cytotoxicity at 70.5 h was -13.8%.
Then `O=S1(=O)COCCN1Cc1ccc(F)c(F)c1`, with -7.08%; and `CCc1oc(C(=O)NCCNS(C)(=O)=O)cc1CN1CCCC1`, with 11.7%; and `CC(=O)N[C@@H](C)C(=O)NCc1cccnc1Oc1ccccc1F`, with -11.6%.
For the compound `CCC[C@@H]1CN(Cc2ccccc2C#N)C[C@H]1NC(C)=O`, the cytotoxicity at 70.5 h was -1.98%.
The same measure for `CN(Cc1cccc(-n2cccn2)c1)C(=O)c1ccnc(N)c1`: 3.21%; for `N#Cc1nccnc1N1CCC(C(O)c2cccs2)CC1` (stereo not drawn): 10.4%.
On to `Cc1ccc2c(c1)SCC(=O)N2CC(=O)N1CCCC1c1cc(C)no1` (stereo not drawn), for which the cytotoxicity at 70.5 h worked out at 12.8%.
With `CN(c1ccc(C(=O)NCCCN2CCCC2)c(Cl)c1)S(C)(=O)=O`, the cytotoxicity at 70.5 h is 17.4%.
The same measure for `O=C1CCc2cc(S(=O)(=O)NCc3cc4n(n3)CCCNC4)ccc2N1`: -12.2%.
Regarding `Cc1nc(N2CCN(C(=O)c3ccccc3)CC2)cc(-n2ccnc2)n1`, the cytotoxicity at 70.5 h was found to be 10.7%.
Then `COc1ccc(C)cc1-n1cnnc1C1CCOCC1`, with -2.32%; and `O=c1[nH]c(NC2CCCC2)nc2nccc(-c3ccsc3)c12`, with -4.5%.
The same measure for `Cc1nc2c(c(NCCNC(=O)C(C)C)n1)Cc1ccccc1OC2`: -6.01%; for `CC(C)Nc1cc(N2CCC(n3cc(C4CCCC4)nn3)CC2)ncn1`: -8.81%; for `Cc1cc(C)n(-c2ccc(NCCNS(=O)(=O)c3ccccc3)nn2)n1`: -5.4%.
Turning to `CCCOC1CCCN(C(=O)c2cnc(-c3csc(C)n3)nc2O)C1` (stereo not drawn), the cytotoxicity at 70.5 h is -6.67%.
The same measure for `CN(C(=O)c1ccc(C2CCCO2)s1)C1CCS(=O)(=O)CC1` (stereo not drawn): 2.73%; for `COc1ccc(-c2ccccc2CCN)c(OC)c1OC`: 6.2%; for `CCc1ccccc1OCCCN(C)C(=O)C1CCCN1C(N)=O` (stereo not drawn): -8.96%.
Take `CN(C)C(=O)C1(Oc2ccc(Cl)cc2)CCNCC1`: the cytotoxicity at 70.5 h was -3.42%.
Take `O=C(Cc1n[nH]c(-c2cncc(Br)c2)n1)NCc1ccncc1`: the cytotoxicity at 70.5 h is -9.88%.
As to `CSc1ccccc1C(=O)Nc1ccc(OC2CCN(C)CC2)cc1`, the cytotoxicity at 70.5 h was 17.4%.
The same measure for `CCC(NC(=O)C1CCN(S(C)(=O)=O)CC1)c1ccc(C)cc1C` (stereo not drawn): -4.73%; for `CCCC1(NC(=O)C(c2ccccc2C)N(C)C)CC1` (stereo not drawn): -5.65%; for `C/C=C(\C)CN1C[C@H](NC(=O)c2cnc(O)cn2)C[C@H]1C(=O)NCC`: -9.9%.
The same measure for `O=C(NCCc1nccs1)c1cn(CCN2CCNCC2)nn1`: -2.39%.
The same measure for `CC(Oc1ccc(F)cc1F)C(=O)N1CCC2(CCCO2)CC1` (stereo not drawn): 27%.
Consider `CCN(Cc1ccncc1)C(=O)c1cn(CCCc2ccccc2)nn1`, for which the cytotoxicity at 70.5 h is -12.5%.
For `Cc1ccc(-c2ccc(Cl)nn2)cc1S(N)(=O)=O`, the cytotoxicity at 70.5 h is -7.63%.
In the case of `CCC(C(=O)NCc1cccnc1)N(c1cccc(C)c1)S(C)(=O)=O` (stereo not drawn), the cytotoxicity at 70.5 h came to 6.87%.
Consider `CC(C)Cn1cncc1-c1nc2c([nH]1)CC(C)(C)CNC2=O`, for which the cytotoxicity at 70.5 h worked out at 4.26%.
On to `CCc1ccccc1OCCN(C)C(=O)CN1CCCC1`, for which the cytotoxicity at 70.5 h was -6.67%.
Take `CCNC(=O)C(C)Oc1ccc(N(C)S(C)(=O)=O)cc1` (stereo not drawn): the cytotoxicity at 70.5 h is -5.5%.
For `Cn1ccc2cc(C(=O)N3CCOCC3)ccc21`, the cytotoxicity at 70.5 h was -9.22%.
